Source: US20160158245A1, “PHARMACEUTICAL FORMULATION CONTAINING THIENOTRIAZOLODIAZEPINE COMPOUNDS” (ONCOETHIX GmbH, priority 2013, published 2016)

Experiments:
Type in all cases: cell-based
[1] = tested on: c-MYC; experiment: QT-PCR of c-MYC in leukemia cell lines; conditions: all cell lines, 250 nM and 500 nM, 48 h
Protocol: The oncogene c-MYC is thought to be activated by BRD4 and is crucial for leukemia maintenance. […] We determined basal gene expression levels of c-MYC in different leukemia cell lines showing heterogeneous results without clear correlation to biologic effects of Compound (1-1) in regard to MTT, apoptosis or cell cycle effects (FIGS. 42A and 42B).
The total RNA obtained after extraction with TRIZOL (Invitrogen, Grand Island, USA) were titrated to 1 μg/uL and stored at −80° C. The complementary DNA (cDNA) was synthesized from 1 μg RNA. The RQ-PCR reactions (BRD2, BRD3, BRD4, c-MYC and ABL) were performed in a volume of 25 ul from a tenth of the cDNA (equivalent to 100 ng of RNA) on a thermocycler ABI7900HT in standard mode (1 cycle of 2 minutes at 50° C.-10 minutes at 95° C. followed by 50 cycles of 15 seconds at 95° C.-1 minute at 60° C.).

[2] = tested on: c-MYC in Jurkat; experiment: Immunoblot (protein level) in Jurkat; conditions: 500 nM, 48 h and 72 h
Protocol: (§1) FIGS. 43A-43L illustrate effects of OTX015 at the protein level for BRD 4, BRD2 and BRD 3 as well as c-MYC. […] AML cell lines HL60, K562 (FIGS. 43A-43C; FIG. 43D-43F) and ALL cell lines Jurkat and RS4-11 (FIG. 43G-43I; FIG. 4JD-43L) were treated with OTX015 at 500 nM and compared to controls exposed to according DMSO. At indicated time-points proteins were extracted and immunoblotted with BRD4, BRD3, BRD2 or c-MYC antibodies after gel electrophoresis. […] One representative experiment out of three is shown.
(§2) The membranes were blocked with LiCor blocking buffer (LiCor, Lincoln, Nebr., USA) and incubated with the respective primary antibody: anti-BRD4 (Epitomics 5716-1, Burlingame, USA), anti-BRD3 (ab56342, AbCam, UK), anti-BRD2 (ab37633, AbCam, UK), anti c-MYC (sc-764 (N262), Santa Cruz, USA) and anti-GAPDH (Invitrogen 398600, Grand Island, USA). Blots were stained with either goat anti-rabbit InfraRedDye 680RD or goat anti-mouse InfraRedDye 800CWsecondary antibody (LiCor). Membranes were imaged using a LiCor Odyssey scanner. Boxes were manually placed around each band of interest, which returned near-infrared fluorescent values of raw intensity with intra-lane background subtracted using Odyssey 3.0 analytical software (LiCor).

[3] = tested on: primary AML patient samples; experiment: Apoptosis in primary patient cells treated ex vivo; conditions: 5 AML patient samples ex vivo, 72 h, 250 and 500 nM
Protocol: FIGS. 44A-44D show effects of OTX015 on primary patient cells. 5 samples from AML patients and 2 ALL, including 1 ALL Ph+ patient, were treated ex vivo with OTX015. OTX015 induced apoptosis in primary AML patient samples at various degrees ranging from 35-85% (FIG. 6). The Ph+ALL patient appeared to be resistant. OTX015 induced apoptosis in primary cells of the AML and ALL patients. Mononuclear cells were obtained from bone marrow (BM) or peripheral blood (PB) from AML and ALL patients. Cells were exposed 72 h with 250 and 500 nM of OTX015 and apoptosis was assessed by annexin V and PI staining. Results are shown with means±SD from duplicates of one experiment.
Mononuclear cells (MNC) from the bone marrow (BM) were isolated by Ficoll-Paque PLUS density gradient (Amersham Biosciences, Sunnyvale, USA). Patient cells were maintained in IMDM (Gibco) supplemented with 10% heat-inactivated fetal calf serum, 2 mM L-glutamine, 100 IU/mL penicillin, and 100 µg/mL streptomycin without growth factors.
a total of 1×10^6 cellsderived from patients or cell lines were resuspended in 1 mL culture medium and incubated with the indicated dosages of OTX015 prepared freshly from 1 mM stock solution in DMSO. […] Apoptotic cells were detected by cytofluorometric analysis using a FACScan (Becton Dickinson, Mountain View, USA). […] Data were analyzed with the Flowjo (Tree Star Inc., Ashland, USA) flow cytometry software. […]

[4] = tested on: BRD4, BRD3 and c-MYC in RS4-11; experiment: Immunoblot (protein level) in RS4-11; conditions: RS4-11, 500 nM
Protocol: as §1, §2

[5] = tested on: ALL cell lines; experiment: MTT assay, statement over all ALL cell lines; conditions: MTT at 72 h, span over ALL cell lines; read-out: GI50 across all ALL cell lines
Protocol: Different representative cell lines for ALL including Jurkat cells (T-ALL), RS 4-11 (MLL-AF4 B-precursor ALL), TO′M-1, BV173 (both Ph+ALL) and AML including K562 (Ph+CML in blast crisis,), HL-60 (NRAS driven AML2), NOMO1 (MLL-AF9 driven AML), KG1 (BMP-FGRF+AML6) and its more immature subtype KG1a were cultured in RPMI 1640 (Gibco Invitrogen, Basel, Switzerland) supplemented with 10% or 20% heat-inactivated fetal calf serum respectively, 2 mM L-glutamine, 100 IU/mL penicillin, and 100 µg/mL streptomycin.
MTT-assay: cells were seeded first into 24-well plates at the density of […] per well to avoid variations of concentrations in smaller volumes and treated with different doses of OTX015 prepared freshly from 1 mM stock solution in DMSO. Cells were transferred to 96-well plates for MTT-assay. Untreated cells and cells treated with equal amounts of DMSO (0.2-1%) used for dilution of OTX015 were used as controls. The 3-(4,5-dimethylthiazol-2-yl)-2,5-diphenyltetrazolium bromide (MTT) (Molecular Probes, Eugene, USA) was prepared as a stock of 5 mg/ml in PBS. […] Cells were then lysed with 25% SDS lysis buffer and absorbance was read at 570 nm. […] GI50 values were calculated with Prism v5 software (GraphPad Inc., La Jolla, USA).
AML and ALL cell lines were exposed to increasing concentrations of compound (1-1), (0.1 nM-10 μM). […] GI50 values were expressed as means from 3 independent experiments.

Q: `Cc1sc2c(c1C)C(c1ccc(Cl)cc1)=N[C@@H](CC(=O)Nc1ccc(O)cc1)c1nnc(C)n1-2` [Compound (1-1), 2-[(6S)-4-(4-chlorophenyl)-2,3,9-trimethyl-6H-thienol[3,2-f]-[1,2,4]triazolo[4,3-a][1,4]diazepin-6-yl]-N-(4-hydroxyphenyl)acetamide dihydrate] was tested. Which c-MYC gene expression [1] did it give?
A: The c-MYC gene expression was “c-MYC downregulation was observed in all cell lines”.

Q: What about the c-MYC protein level [2] of the same compound?
A: Its c-MYC protein level is “c-MYC downregulation”.

Q: And the apoptosis [3]?
A: Its apoptosis is 35-85%.

Q: What about the “BRD4, BRD3 and c-MYC protein level” value [4] of the same compound?
A: The value was “remained unaffected”.

Q: And the GI50 [5]?
A: Its GI50 is 34.2 to 250 nM.
